Measurements published in BindingDB's records for doi:10.1021/acs.jmedchem.7b01525 (University of Montreal, 2017).
pEC50: −log10 of the molar value.

How the values were obtained:
Urotensin-2 receptor [1] = molecular target: T1, Urotensin-2 receptor (Rattus norvegicus, UniProt P49684); test: Allosteric modulation of urotensin-2 receptor in Sprague-Dawley rat thoracic aorta assessed as change in human urotensin-2-mediated aortic ring contraction by measuring urotensin-2 pEC50 at 10^-5M preincubated for 15 mins followed by urotensin-2 addition (Rvb = 8.61 +/- 0.05 No_unit)
T1 sequence (P49684 whole entry): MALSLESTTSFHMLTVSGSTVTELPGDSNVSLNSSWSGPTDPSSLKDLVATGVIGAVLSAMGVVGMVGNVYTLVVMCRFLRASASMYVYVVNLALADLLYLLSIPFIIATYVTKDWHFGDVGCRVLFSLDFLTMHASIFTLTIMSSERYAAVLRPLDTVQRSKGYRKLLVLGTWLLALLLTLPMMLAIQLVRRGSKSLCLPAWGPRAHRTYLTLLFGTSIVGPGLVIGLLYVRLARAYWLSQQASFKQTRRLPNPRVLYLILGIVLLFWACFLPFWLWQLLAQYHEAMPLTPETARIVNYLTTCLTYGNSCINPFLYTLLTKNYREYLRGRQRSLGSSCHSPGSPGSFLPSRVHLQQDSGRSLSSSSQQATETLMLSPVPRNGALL

Urotensin-2 receptor [2] = molecular target: T1, Urotensin-2 receptor; test: Allosteric modulation of urotensin-2 receptor in Sprague-Dawley rat thoracic aorta assessed as change in URP-mediated aortic ring contraction by measuring URP pEC50 at 10^-5M preincubated for 15 mins followed by URP addition (Rvb = 8.09 +/- 0.03 No_unit)
[3] = Allosteric modulation of urotensin-2 receptor in Sprague-Dawley rat thoracic aorta assessed as change in URP-mediated aortic ring contraction by measuring URP pEC50 at 1 uM preincubated for 15 mins followed by URP addition (Rvb = 8.09 +/- 0.03 No_unit)
[4] = Allosteric modulation of urotensin-2 receptor in Sprague-Dawley rat thoracic aorta assessed as change in human urotensin-2-mediated aortic ring contraction by measuring urotensin-2 pEC50 at 1 uM preincubated for 15 mins followed by urotensin-2 addition (Rvb = 8.61 +/- 0.05 No_unit)
Urotensin-2 receptor [5] = molecular target: T2, Urotensin-2 receptor (Homo sapiens, UniProt Q9UKP6); test: Allosteric modulation of human urotensin-2 receptor expressed in HEK293 cells assessed as change in URP-induced G12 activation by measuring URP pEC50 at 10^-5 M preincubated for 30 mins followed by URP addition by BRET assay (Rvb = 6.75 +/- 0.19 No_unit)
T2 sequence (Q9UKP6 whole entry): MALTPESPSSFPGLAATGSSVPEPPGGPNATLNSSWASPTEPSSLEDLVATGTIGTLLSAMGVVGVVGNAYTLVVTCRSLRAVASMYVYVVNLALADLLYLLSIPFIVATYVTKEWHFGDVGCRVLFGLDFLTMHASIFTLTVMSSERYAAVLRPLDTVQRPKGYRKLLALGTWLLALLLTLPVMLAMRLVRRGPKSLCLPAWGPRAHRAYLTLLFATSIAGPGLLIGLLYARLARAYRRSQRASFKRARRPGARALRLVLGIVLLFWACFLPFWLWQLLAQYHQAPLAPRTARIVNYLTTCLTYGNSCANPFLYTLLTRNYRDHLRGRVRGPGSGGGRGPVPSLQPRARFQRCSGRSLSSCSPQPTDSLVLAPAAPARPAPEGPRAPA

Urotensin-2 receptor [6] = molecular target: T2, Urotensin-2 receptor; test: Allosteric modulation of human urotensin-2 receptor expressed in HEK293 cells assessed as change in human urotensin-2-induced Gq activation by measuring urotensin-2 pEC50 at 10^-5 M preincubated for 30 mins followed by urotensin-2 addition by BRET assay (Rvb = 7.88 +/- 0.07 No_unit)
Urotensin-2 receptor [7] = molecular target: T2, Urotensin-2 receptor; test: Allosteric modulation of human urotensin-2 receptor expressed in HEK293 cells assessed as change in URP-induced Gq activation by measuring URP pEC50 at 10^-5 M preincubated for 30 mins followed by URP addition by BRET assay (Rvb = 8.28 +/- 0.08 No_unit)
Urotensin-2 receptor [8] = molecular target: T2, Urotensin-2 receptor; test: Allosteric modulation of human urotensin-2 receptor expressed in HEK293 cells assessed as change in human urotensin-2-induced G12 activation by measuring urotensin-2 pEC50 at 10^-5 M preincubated for 30 mins followed by urotensin-2 addition by BRET assay (Rvb = 6.31 +/- 0.17 No_unit)

Row | SMILES | pEC50 (Urotensin-2 receptor [1]) | pEC50 (Urotensin-2 receptor [2]) | further results
1 | NCCCN1N=C(CCc2ccc(O)cc2)c2ccccc2N(Cc2ccc(-c3ccccc3)cc2)C1=O | 8.35 | 7.96 | 
2 | CNCCCCN1N=C(CCc2nc3ccccc3s2)c2ccccc2N(Cc2ccc(-c3ccccc3)cc2)C1=O | 8.22 | 7.82 | 
3 | CNCCCCN1N=C(CCc2nc3ccccc3s2)c2ccccc2N(Cc2cccc3ccccc23)C1=O | 8.39 | 8.18 | 
4 | NCCCCN1N=C(CCc2nc3ccccc3s2)c2ccccc2N(Cc2ccc(-c3ccccc3)cc2)C1=O | 7.92 | 8.43 | 
5 | CC(C)[C@H](NC(=O)[C@@H]1CSSC[C@H](NC(=O)[C@H](C)N)C(=O)N[C@@H](Cc2ccccc2)C(=O)N[C@@H](Cc2ccc(-c3ccccc3)cc2)C(=O)N[C@@H](CCCCN)C(=O)N[C@@H](Cc2ccc(O)cc2)C(=O)N1)C(=O)O |  |  | pEC50 [3]: 7.74; pEC50 [4]: 7.60
6 | NCCCN1N=C(CCc2nc3ccccc3s2)c2ccccc2N(Cc2ccc(-c3ccccc3)cc2)C1=O | 8.85 | 8.43 | 
7 | NCCCCN1N=C(C=Cc2ccc(O)cc2)c2ccccc2N(Cc2ccc3ccccc3c2)C1=O | 7.82 |  | 
8 | NCCCCN1N=C(CCc2ccc(O)cc2)c2ccccc2N(Cc2ccc(-c3ccccc3)cc2)C1=O | 8.46 | 7.70 | 
9 | COc1ccc(CCC2=NN(CCCCN)C(=O)N(Cc3ccc4ccccc4c3)c3ccccc32)cc1 | 8.30 | 8.40 | 
10 | NCCCN1N=C(CCc2ccc(O)cc2)c2ccccc2N(Cc2ccc3ccccc3c2)C1=O | 8.43 | 8.00 | 
11 | CNCCCCN1N=C(CCc2nc3ccccc3s2)c2ccccc2N(Cc2ccc3ccccc3c2)C1=O | 8.37 | 8.37 | 
12 | COc1ccc(C=CC2=NN(CCCCN)C(=O)N(Cc3ccc4ccccc4c3)c3ccccc32)cc1 | 8.44 | 8.07 | 
13 | COc1ccc(CCC2=NN(CCCN)C(=O)N(Cc3ccc4ccccc4c3)c3ccccc32)cc1 | 8.40 | 8.20 | 
14 | CNCCCN1N=C(CCc2nc3ccccc3s2)c2ccccc2N(Cc2ccc(-c3ccccc3)cc2)C1=O | 8.39 | 8.31 | 
15 | NCCCCN1N=C(CCc2nc3ccccc3s2)c2ccccc2N(Cc2ccc3ccccc3c2)C1=O | 8.52 | 8.46 | 
16 | NCCCCN1N=C(CCc2ccc(O)cc2)c2ccccc2N(Cc2ccc3ccccc3c2)C1=O | 8.36 | 8.00 | pEC50 (Urotensin-2 receptor [5]): 5.96; pEC50 (Urotensin-2 receptor [6]): 7.96; pEC50 (Urotensin-2 receptor [7]): 8.30; pEC50 (Urotensin-2 receptor [8]): 5.93
17 | COc1ccc(CCC2=NN(CCCCN)C(=O)N(Cc3ccc(-c4ccccc4)cc3)c3ccccc32)cc1 | 8.43 | 8.30 | 
18 | COc1ccc(CCC2=NN(CCCN)C(=O)N(Cc3ccc(-c4ccccc4)cc3)c3ccccc32)cc1 | 8.49 | 8.11 | 
19 | NCCCN1N=C(C=Cc2ccc(O)cc2)c2ccccc2N(Cc2ccc3ccccc3c2)C1=O | 7.92 | 7.70 | 
20 | NCCCN1N=C(CCc2nc3ccccc3s2)c2ccccc2N(Cc2cccc3ccccc23)C1=O | 8.32 | 8.24 | 
21 | COc1ccc(C=CC2=NN(CCCCN)C(=O)N(Cc3ccc(-c4ccccc4)cc3)c3ccccc32)cc1 |  | 8.20 | pEC50 (Urotensin-2 receptor [5]): 5.76; pEC50 (Urotensin-2 receptor [6]): 8.07; pEC50 (Urotensin-2 receptor [7]): 8.15; pEC50 (Urotensin-2 receptor [8]): 5.65
22 | NCCCCN1N=C(C=Cc2ccc(O)cc2)c2ccccc2N(Cc2ccc(-c3ccccc3)cc2)C1=O |  | 8.03 | pEC50 (Urotensin-2 receptor [5]): 6.93; pEC50 (Urotensin-2 receptor [6]): 7.85; pEC50 (Urotensin-2 receptor [7]): 8.38; pEC50 (Urotensin-2 receptor [8]): 5.66
23 | NCCCN1N=C(CCc2nc3ccccc3s2)c2ccccc2N(Cc2ccc3ccccc3c2)C1=O | 8.48 | 8.40 | pEC50 (Urotensin-2 receptor [5]): 5.71; pEC50 (Urotensin-2 receptor [6]): 7.96; pEC50 (Urotensin-2 receptor [7]): 8.21; pEC50 (Urotensin-2 receptor [8]): 5.43
